For test [1], the system named is pain intensity associated with knee osteoarthritis. As to the kind of experiment: Study I: 6-week clinical trial of tapentadol and NSAID combination, Arthritis Pain Intensity VAS. The test is classed as in vivo, human. The conditions noted are these: primary endpoint; average of Weeks 1-6; knee osteoarthritis patients; FIG. 2.
Test [2] has as its system Chronic non-cancer pain (CNCP). Put plainly: Study III: clinical trial of tapentadol and tramadol combination, VAS pain score. The test is classed as in vivo, human. The conditions noted are these: mean ± SD, VAS 0-100 mm, N = 10. The method, then: The following general methods were used in all of the studies;
Randomization: Randomization was performed with computer-generated random numbers in blocks of 10. Randomization codes of the monotherapy or combination therapy treatments were placed in sequentially numbered, opaque, sealed envelopes in the biopsy center. When a patient was recruited and consented, the next numbered envelope was opened by the operator, who had no knowledge of the randomization code before the treatment
Scale and Measurement: Pain was assessed using a visual analogue scale (VAS) graded from 0-100 mm. Pain scoring was performed every visit Week 1, Week 2, Week 3, Week 4, Week 5 and Week 6. The patients were taught with a standard method by the physician how to use a VAS scoring from 0 to 100 mm to grade the intensity of pain experienced during the treatment. On that scale, the left endpoint, 0, was defined as no pain and the right endpoint 100, as the worst pain the patient could imagine. There were no further marks on the line. The intensity of pain was indicated by the distance in millimeters from the left end. Patients were asked to grade the pain intensity after the administration of drugs and the pain was assessed by the patient in their weekly pain score diary. The doctors who prescribed the medicines obtained all the VAS forms for that specific patient.
Statistical Analysis: Data are expressed as means±SD. Differences in VAS were analyzed with use of the unpaired Student t test and differences in pain score reductions between the two groups were analyzed with use of the Mann-Whitney U test for the median difference. Similar statistical tests were used for between group comparisons of other outcome variables as appropriate. A two tailed P value of less than. […] SAS software was used for the statistical analysis.
The Fixed dose combination of slow release tapentadol hydrochloride and tramadol hydrochloride was tested in a human clinical trial. In this study III, 40 patients were used in a clinical trial were suffering from Chronic non-cancer pain (CNCP), defined as pain for longer than 6 months, including neuropathic pain, osteoarthritis, rheumatoid arthritis, fibromyalgia, and back and musculoskeletal pain were included in the clinical trial. No effort was made to segregate the patients based on the type of pain nor did we evaluate the extent of pain relief on the basis of pain type. Those patients with migraines, dental pain, abdominal pains (from chronic pancreatitis, kidney stones, etc.) and ischemic pain from vascular disease were excluded because they are usually not classified as CNCP. Patients with history of addiction (alcohol or drugs) were excluded from the trials.

Counter-ions that a name gives are not always drawn.

Data on three compounds can be found in US20100297229A1, “TAPENTADOL COMPOSITIONS” (Nectid Inc., priority 2007, published 2010).

Regarding `CC[C@@H](c1cccc(O)c1)[C@@H](C)CN(C)C` [Tapentadol, 3-(3-Dimethylamino-1-ethyl-2-methyl-propyl)-phenol], in test [1], the “LS Mean change from baseline over 6 weeks in the arthritis pain intensity VAS” value is listed as 38%. Further, the “VAS Pain Score” value in test [2] (time 0 hours) was 33.7 ± 18.2; in test [2] (time 3 hours), 24.8 ± 19.1; in test [2] (time 6 hours), 21.1 ± 22.9; in test [2] (time 9 hours), 14.2 ± 23.1; in test [2] (time 12 hours), 11.2 ± 20.9; in test [2] (time 15 hours), 11.0 ± 16.2. The figures for the “VAS Pain Score” value in test [2] (time 18 hours), in test [2] (time 21 hours) and in test [2] (time 24 hours) were 9.5 ± 17.8, 10.4 ± 16.2 and 11.6 ± 16.2, respectively.

`COc1ccc2cc([C@H](C)C(=O)O)ccc2c1` [Naproxen, (+)-(S)-2-(6-methoxy-naphthalen-2-yl) propanoic acid]: in test [1], the “LS Mean change from baseline over 6 weeks in the arthritis pain intensity VAS” value is on record as 28%.

In the case of `COc1cccc([C@]2(O)CCCC[C@H]2CN(C)C)c1` (racemic) [Tramadol, (±) cis-2-[(dimethylamino)methyl]-1-(3-methoxyphenyl)cyclo-hexanol hydrochloride], the “VAS Pain Score” value in test [2] (time 0 hours) is 32.4 ± 21.2; in test [2] (time 3 hours), 23.1 ± 20.1; in test [2] (time 6 hours), 18.8 ± 20.6; in test [2] (time 9 hours), 14.9 ± 17.2; in test [2] (time 12 hours) it was 13.1 ± 21.2; in test [2] (time 15 hours), 13.9 ± 19.2. Further, the “VAS Pain Score” value in test [2] (time 18 hours) was 15.4 ± 21.3; in test [2] (time 21 hours), 14.5 ± 19.2; in test [2] (time 24 hours), 13.9 ± 19.2.
